Among the test systems are HOP-92 NSCLC; HT29 colon; IGROV1 ovarian; LOX IMVI melanoma; NCI-H23 lung; RPMI-8226 leukemia; SF-539 CNS; SN12C renal; TK-10 renal; MDA-MB-231 breast.
Holding throughout (assay): inhibition of tumour cell growth, NCI panel, 48 h

SMILES strings stand for the structures.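 Where inhibition never reached the appropriate level, the endpoint shown equals the highest concentration tested. Otherwise, values were interpolated linearly from a five-concentration, 48-hour dose response in 96-well plates. At the GI50, growth is halved. The concentration for full growth arrest is given as TGI.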

`C[C@@]12CCCC(=O)N1[C@@H](CO)C(c1ccccc1)O2` (some centres undefined): the TGI with HOP-92 NSCLC, with HT29 colon, in the experiment with IGROV1 ovarian, in the experiment with LOX IMVI melanoma, in the experiment with NCI-H23 lung and with RPMI-8226 leukemia was greater than 100 µM throughout. Further, the TGI in the experiment with SF-539 CNS, in the experiment with SN12C renal and with TK-10 renal was greater than 100 µM throughout.
Consider `CC(C)(C)[Si](C)(C)OCC1OC(n2cnc3c(N)ncnc32)C(O)C1O` (centres undefined), for which the TGI in the experiment on HT29 colon, in the experiment on IGROV1 ovarian, in the experiment on LOX IMVI melanoma, in the experiment with MDA-MB-231 breast, in the experiment with NCI-H23 lung and in the experiment on RPMI-8226 leukemia was greater than 100 µM throughout. Further, the TGI with SF-539 CNS, in the experiment on SN12C renal and with TK-10 renal was greater than 100 µM throughout.
On to `CC1(C)C2CCC13C(=O)C1OC3(C2)C2C(=O)c3c(O)cccc3C(=O)C12` (centres undefined), for which the GI50 was 0.566 µM in the experiment with HOP-92 NSCLC; 3.58 µM with HT29 colon; 0.472 µM with MDA-MB-231 breast; 2.24 µM in the experiment with NCI-H23 lung; 0.177 µM with RPMI-8226 leukemia; 2.64 µM in the experiment on SF-539 CNS. Further, the GI50 with SN12C renal was 0.711 µM; in the experiment on TK-10 renal it was 0.979 µM. The TGI is 1.89 µM in the experiment with HOP-92 NSCLC; 9.4 µM in the experiment on HT29 colon; 1.33 µM with MDA-MB-231 breast; 6.55 µM in the experiment on NCI-H23 lung; 0.441 µM with RPMI-8226 leukemia; 8.05 µM in the experiment with SF-539 CNS. For the same molecule, the TGI in the experiment with SN12C renal is 1.84 µM; with TK-10 renal, 2.83 µM.
For the molecule `COc1ccc(C2ONC3=NCCN32)cc1` (centres undefined), the GI50 in the experiment with HOP-92 NSCLC was 40.8 µM; in the experiment with HT29 colon it was 68.8 µM; with IGROV1 ovarian, 73.2 µM; with LOX IMVI melanoma, 14.4 µM; in the experiment on MDA-MB-231 breast, greater than 100 µM; with NCI-H23 lung it was greater than 100 µM. In addition, the GI50 was 84.8 µM in the experiment on SF-539 CNS, 52.8 µM in the experiment on SN12C renal and greater than 100 µM with TK-10 renal. The TGI in the experiment with HOP-92 NSCLC was greater than 100 µM; in the experiment on HT29 colon, greater than 100 µM; with IGROV1 ovarian it was greater than 100 µM; in the experiment with LOX IMVI melanoma, 47.1 µM; in the experiment with MDA-MB-231 breast it was greater than 100 µM; in the experiment with NCI-H23 lung, greater than 100 µM. Further, the TGI with SF-539 CNS, in the experiment with SN12C renal and with TK-10 renal was greater than 100 µM in each case.
In the case of `O=C(O)Cn1ccnc1[N+](=O)[O-]`, the TGI in the experiment with HOP-92 NSCLC, in the experiment with HT29 colon, with IGROV1 ovarian, with MDA-MB-231 breast, in the experiment with NCI-H23 lung and in the experiment with RPMI-8226 leukemia was greater than 100 µM throughout. In addition, the TGI in the experiment with SF-539 CNS, with SN12C renal and with TK-10 renal was greater than 100 µM in each case.
In the case of `O=C(Nc1ccccc1O)c1ccc(CNC(=O)c2ccsc2Nc2ccnc(C(F)(F)F)c2)cc1`, the GI50 in the experiment on HT29 colon is 3.05 µM; with IGROV1 ovarian, 2.8 µM; in the experiment on LOX IMVI melanoma, 1.63 µM; with MDA-MB-231 breast, 2.85 µM; with NCI-H23 lung, 1.72 µM; in the experiment with RPMI-8226 leukemia, 1.14 µM. Further, the GI50 with SF-539 CNS was 1.95 µM; with SN12C renal, 4.13 µM; in the experiment on TK-10 renal, 2.1 µM. Besides, the TGI in the experiment on HT29 colon was 12.6 µM; in the experiment with IGROV1 ovarian, 13.5 µM; with LOX IMVI melanoma, 3.99 µM; in the experiment with MDA-MB-231 breast it was 13.2 µM; in the experiment on NCI-H23 lung, 4.88 µM; in the experiment on RPMI-8226 leukemia, 6.72 µM. Moreover, the figures for the TGI in the experiment on SF-539 CNS, in the experiment with SN12C renal and in the experiment with TK-10 renal were 18.1 µM, 79.3 µM and 9.33 µM, respectively.
With `CCCn1cnc2c(SCc3ccccc3)nc(N)nc21`, the GI50 in the experiment with HT29 colon was greater than 100 µM; in the experiment with IGROV1 ovarian, greater than 100 µM; with LOX IMVI melanoma, 98.9 µM; in the experiment on MDA-MB-231 breast it was greater than 100 µM; with NCI-H23 lung, greater than 100 µM; with RPMI-8226 leukemia, 41.6 µM. For the same molecule, the GI50 in the experiment on SF-539 CNS is greater than 100 µM; in the experiment on SN12C renal it was greater than 100 µM; in the experiment on TK-10 renal it was 80.5 µM. Besides, the TGI in the experiment on HT29 colon, in the experiment on IGROV1 ovarian, in the experiment on LOX IMVI melanoma, with MDA-MB-231 breast, in the experiment on NCI-H23 lung and in the experiment on RPMI-8226 leukemia was greater than 100 µM throughout. In addition, the TGI in the experiment on SF-539 CNS, in the experiment on SN12C renal and in the experiment with TK-10 renal was greater than 100 µM throughout.
For `COc1ccc(C2NCCc3c2[nH]c2ccccc32)cc1` (centres undefined), the TGI in the experiment with HOP-92 NSCLC, in the experiment on HT29 colon, with IGROV1 ovarian, with LOX IMVI melanoma, in the experiment on NCI-H23 lung and in the experiment on RPMI-8226 leukemia was greater than 100 µM each time. The TGI with SF-539 CNS, with SN12C renal and in the experiment on TK-10 renal was greater than 100 µM in each case.
Regarding `CC(=O)OCCC(O[Si](c1ccccc1)(c1ccccc1)C(C)(C)C)C(C)(C)O` (centres undefined), the TGI with HOP-92 NSCLC is 65.1 µM; in the experiment on HT29 colon, 66.9 µM; with IGROV1 ovarian, greater than 100 µM; in the experiment with LOX IMVI melanoma, 57.8 µM; in the experiment with NCI-H23 lung it was 68.7 µM; in the experiment on RPMI-8226 leukemia, 63 µM. The TGI in the experiment with SF-539 CNS is 63.8 µM; in the experiment on SN12C renal, 34.2 µM; in the experiment on TK-10 renal, greater than 100 µM.
Consider `c1cnc2[nH]cc(-c3csc(-c4cn(CCCN5CCCCC5)c5ccccc45)n3)c2c1`, for which the GI50 was 1.36 µM in the experiment with HOP-92 NSCLC; 1.75 µM in the experiment on HT29 colon; 1.63 µM in the experiment on MDA-MB-231 breast; 2.08 µM with RPMI-8226 leukemia; 1.68 µM with SF-539 CNS; 1.68 µM in the experiment with SN12C renal. Besides, in the experiment on TK-10 renal, the GI50 is 2.22 µM. Moreover, the TGI in the experiment with HOP-92 NSCLC was 2.88 µM; in the experiment on HT29 colon it was 3.44 µM; with MDA-MB-231 breast, 3.11 µM; in the experiment with RPMI-8226 leukemia, 4.63 µM; in the experiment on SF-539 CNS, 3.1 µM; in the experiment with SN12C renal, 3.22 µM. In the experiment with TK-10 renal, this molecule had a TGI of 3.79 µM.
